Source: patent US4923813A, “Monoclonal antibody-based immunoassay for cyclic DNA adducts resulting from exposure to crotonaldehyde or acrolein” (American Health Foundation, priority 1988, dated 1990)

What was measured:
monoclonal antibody CA1 = test: competitive ELISA, inhibition of binding of antibody CA1 to structure 1a,b-KLH conjugate; parameters: species or system mouse; conditions: for pmol of compound needed for 50% inhibition of binding in the competitive ELISA, CA1: plate coated with structure 1a,b-KLH conjugate
From the text: (§1) Screening for Antibody Production. In order to screen the fused cells for the production of antibody specific for the cyclic deoxyguanosine adducts, an enzyme-linked immunosorbent assay ("ELISA") may be used. ELISA links soluble antigens to insoluble antibodies or soluble antibodies to solid phase antigens in a manner that allows both immunolgical and enzymatic activity to be retained.
(§2) ELISA techniques for antigen or antibody quantification are well-known to the art. By way of example, wells of a 96-well polystyrene ELISA plate may be coated with 10 ng of structure a, b-KLH conjugate, diluted in Phosphate buffered saline (PBS), for 1 h at room temperature. The wells may be washed twice with PBS containing 0.1% Tween 20 and twice with distilled H2 O. From this point all reagents may be diluted in PBS containing 0.1% bovine serum albumin ("BSA"). Wells are filled with 50 μl of PBS-BSA followed by 50 μl of culture supernatant and incubated at room temperature for 1 h. For competitive ELISA, adduct standards or test samples are mixed with the monoclonal antibody and added to the well. The wells are washed and 100 μl of alkaline phosphatase-labeled goat anti-mouse 1 gG antibody (Kirkegaard & Perry Laboratories, Inc., Gaithersburg, Md.) are added to each well and incubated at room temperature for 1 h. After washing, 100 μl of substrate solution (1 mg/ml of p-nitrophenylphosphate in 1M diethanolamine buffer, pH 9.8) are added to each well and incubated at room temperature for 30 min. […] In quantitative experiments the concentration of unknown samples may be determined by comparison to a standard curve relating the log of the inhibitor concentration to the logit of the percentage of inhibition [formula]
(§3) Using the above-identified procedures, a single mouse was boosted with the structure 1a,b-KLH conjugate for 4 consecutive days and the fusion was performed on the fifth day.

monoclonal antibody CA2 = test: competitive ELISA, inhibition of binding of antibody CA2 to structure 1a,b-KLH conjugate; parameters: species or system mouse; conditions: for pmol of compound needed for 50% inhibition of binding in the competitive ELISA, CA2: plate coated with structure 1a,b-KLH conjugate
From the text: as §1, §2, §3

monoclonal antibody CA3 = test: competitive ELISA, inhibition of binding of antibody CA3 to structure 1a,b-KLH conjugate; parameters: species or system mouse; conditions: for pmol of compound needed for 50% inhibition of binding in the competitive ELISA, CA3: plate coated with structure 1a,b-KLH conjugate
From the text: as §1, §2, §3

monoclonal antibody CA4 = test: competitive ELISA, inhibition of binding of antibody CA4 to structure 1a,b-KLH conjugate; parameters: species or system mouse; conditions: plate coated with structure 1a,b-KLH conjugate
From the text: as §1, §2, §3

[1] = test system: the four antibodies (CA1, CA2, CA3, CA4); test: competitive ELISA, reactivity of the four antibodies; format: binding, mouse; conditions: all four antibodies; O6-methyldeoxyguanosine: with the exception of CA3
From the text: as §1, §2, §3

`Cc1cn([C@H]2C[C@H](O)[C@@H](CO)O2)c(=O)[nH]c1=O` [Thymidine, reference compound] was tested, and the “pmol of compound needed for 50% inhibition of binding in the competitive ELISA, CA1” value (“pmol of compound needed for 50% inhibition … CA1” for short) (monoclonal antibody CA1) was > 100,000 pmol, the “pmol of compound needed for 50% inhibition of binding in the competitive ELISA, CA2” value (shortened to “pmol of compound needed for 50% inhibition … CA2”) (monoclonal antibody CA2) was > 100,000 pmol and the “pmol of compound needed for 50% inhibition of binding in the competitive ELISA, CA3” value (“pmol of compound needed for 50% inhibition … CA3” below) (monoclonal antibody CA3) was > 100,000 pmol. For the same compound, the “pmol of compound needed for 50% inhibition of binding in the competitive ELISA, CA4” value (from here on “pmol of compound needed for 50% inhibition … CA4”) (monoclonal antibody CA4) was > 100,000 pmol.
With `CC1CC(O)n2c(nc3[nH]cnc3c2=O)N1` (stereo not drawn) [1,base] the “pmol of compound needed for 50% inhibition … CA1” value (monoclonal antibody CA1) was 8.6 pmol, the “pmol of compound needed for 50% inhibition … CA2” value (monoclonal antibody CA2) was 69 pmol and the “pmol of compound needed for 50% inhibition … CA3” value (monoclonal antibody CA3) was 143 pmol. The “pmol of compound needed for 50% inhibition … CA4” value (monoclonal antibody CA4) was 30 pmol and the “reactivity / cross-reactivity with the four antibodies” value (shortened to “reactivity / cross-reactivity”) [1] was “Cross-reactivity”.
For `CC1CC(O)n2c(nc3c(ncn3[C@H]3C[C@H](O)[C@@H](CO)O3)c2=O)N1` (mixture of isomers) [1b, 8R, 6R- and 8S, 6S-3-(2-deoxy-3-β-erythro-pentofuranosyl) 5,6,7,8-tetrahydro-8-hydroxy-6-methylpyrimido(1,2-a)purine-10(3H)one], the “affinity of antibody CA1” value (monoclonal antibody CA1) was “high apparent affinity”, the “pmol of compound needed for 50% inhibition … CA1” value (monoclonal antibody CA1) was 0.2 pmol and the “pmol of compound needed for 50% inhibition … CA2” value (monoclonal antibody CA2) was 0.4 pmol. The “pmol of compound needed for 50% inhibition … CA3” value (monoclonal antibody CA3) was 10 pmol, the “pmol of compound needed for 50% inhibition … CA4” value (monoclonal antibody CA4) was 0.9 pmol and the “reactivity / cross-reactivity” value [1] was “strongest”.
For `O=c1c2ncn([C@H]3C[C@H](O)[C@@H](CO)O3)c2nc2n1C(O)C(O)N2` (stereo partly drawn) [1e], the “pmol of compound needed for 50% inhibition … CA1” value (monoclonal antibody CA1) was 113 pmol, the “pmol of compound needed for 50% inhibition … CA2” value (monoclonal antibody CA2) was 156 pmol and the “pmol of compound needed for 50% inhibition … CA3” value (monoclonal antibody CA3) was 22 pmol. For the same compound, the “pmol of compound needed for 50% inhibition … CA4” value (monoclonal antibody CA4) was 41,470 pmol and the “reactivity / cross-reactivity” value [1] was “Cross-reactivity”.
`Nc1ncnc2c1ncn2[C@H]1C[C@H](O)[C@@H](CO)O1` [Deoxyadenosine, reference compound] was tested, and the “pmol of compound needed for 50% inhibition … CA1” value (monoclonal antibody CA1) was > 80,000 pmol, the “pmol of compound needed for 50% inhibition … CA2” value (monoclonal antibody CA2) was > 80,000 pmol and the “pmol of compound needed for 50% inhibition … CA3” value (monoclonal antibody CA3) was > 80,000 pmol. The “pmol of compound needed for 50% inhibition … CA4” value (monoclonal antibody CA4) was > 80,000 pmol.
For `CC1CC(O)n2c(nc3c(ncn3[C@H]3C[C@H](O)[C@@H](CO)O3)c2=O)N1` (mixture of isomers) [1a, 8R, 6R- and 8S, 6S-3-(2-deoxy-3-β-erythro-pentofuranosyl) 5,6,7,8-tetrahydro-8-hydroxy-6-methylpyrimido(1,2-a)purine-10(3H)one], the “affinity of antibody CA1” value (monoclonal antibody CA1) was “lower affinity”, the “pmol of compound needed for 50% inhibition … CA1” value (monoclonal antibody CA1) was 12.8 pmol and the “pmol of compound needed for 50% inhibition … CA2” value (monoclonal antibody CA2) was 17 pmol. The “affinity / reactivity of antibody CA3” value (monoclonal antibody CA3) was “highest affinity of the four antibodies”, the “pmol of compound needed for 50% inhibition … CA3” value (monoclonal antibody CA3) was 0.2 pmol and the “pmol of compound needed for 50% inhibition … CA4” value (monoclonal antibody CA4) was 10 pmol. The “reactivity / cross-reactivity” value [1] was “strongest”.
With `COc1nc(N)nc2c1ncn2[C@H]1C[C@H](O)[C@@H](CO)O1` [reference compound] the “pmol of compound needed for 50% inhibition … CA1” value (monoclonal antibody CA1) was 56,790 pmol, the “pmol of compound needed for 50% inhibition … CA2” value (monoclonal antibody CA2) was 51,270 pmol and the “pmol of compound needed for 50% inhibition … CA3” value (monoclonal antibody CA3) was 235 pmol. For the same compound, the “pmol of compound needed for 50% inhibition … CA4” value (monoclonal antibody CA4) was > 100,000 pmol and the “reactivity / cross-reactivity” value [1] was “unreactive”.
`O=c1c2ncn([C@H]3C[C@H](O)[C@@H](CO)O3)c2nc2n1CCC(O)N2` (stereo partly drawn) [1c] was tested, and the “pmol of compound needed for 50% inhibition … CA1” value (monoclonal antibody CA1) was 90 pmol, the “pmol of compound needed for 50% inhibition … CA2” value (monoclonal antibody CA2) was 9 pmol and the “affinity / reactivity of antibody CA3” value (monoclonal antibody CA3) was “less reactive than the above three molecules”. The “pmol of compound needed for 50% inhibition … CA3” value (monoclonal antibody CA3) was 5 pmol, the “pmol of compound needed for 50% inhibition … CA4” value (monoclonal antibody CA4) was 112 pmol and the “reactivity / cross-reactivity” value [1] was “Cross-reactivity”.
For `O=c1c2ncn([C@H]3C[C@H](O)[C@@H](CO)O3)c2nc2n1C(O)CCN2` (stereo partly drawn) [1d], the “pmol of compound needed for 50% inhibition … CA1” value (monoclonal antibody CA1) was 0.8 pmol, the “specificity of antibody CA2” value (monoclonal antibody CA2) was “most specific” and the “pmol of compound needed for 50% inhibition … CA2” value (monoclonal antibody CA2) was 0.2 pmol. For the same compound, the “pmol of compound needed for 50% inhibition … CA3” value (monoclonal antibody CA3) was 0.9 pmol, the “pmol of compound needed for 50% inhibition … CA4” value (monoclonal antibody CA4) was 7.9 pmol and the “reactivity / cross-reactivity” value [1] was “Cross-reactivity”.
`Nc1ccn([C@H]2C[C@H](O)[C@@H](CO)O2)c(=O)n1` [Deoxycytosine, reference compound] was tested, and the “pmol of compound needed for 50% inhibition … CA1” value (monoclonal antibody CA1) was > 110,000 pmol, the “pmol of compound needed for 50% inhibition … CA2” value (monoclonal antibody CA2) was > 110,000 pmol and the “pmol of compound needed for 50% inhibition … CA3” value (monoclonal antibody CA3) was > 110,000 pmol. The “pmol of compound needed for 50% inhibition … CA4” value (monoclonal antibody CA4) was > 110,000 pmol.
For `Nc1nc2c(ncn2[C@H]2C[C@H](O)[C@@H](CO)O2)c(=O)[nH]1` [Deoxyguanosine, reference compound], the “pmol of compound needed for 50% inhibition … CA1” value (monoclonal antibody CA1) was 2,564 pmol, the “pmol of compound needed for 50% inhibition … CA2” value (monoclonal antibody CA2) was 698 pmol and the “pmol of compound needed for 50% inhibition … CA3” value (monoclonal antibody CA3) was 14 pmol. For the same compound, the “pmol of compound needed for 50% inhibition … CA4” value (monoclonal antibody CA4) was 5,370 pmol and the “reactivity / cross-reactivity” value [1] was “significant cross-reactivity”.
